According to PubChem BioAssay AID2060616 (Molecular Pharmacology Branch, DTP, NCI, 2025):

Test system: 377384-186-R-J1-PDC complex spheroid viability
Test: Anticancer human tumor 377384-186-R-J1-PDC patient-derived pancreatic carcinoma cell line growth inhibition [CLK]
Settings: for IC50: curve of first compound; for viability, T/C: stronger effect = lower value
Procedure, shortened: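 Patient-derived tumor cells grown as complex spheroids with HUVEC endothelial cells and mesenchymal stem cells, treated with drug combinations. Concentrations descend in half-log steps from near clinical Cmax, or from 10 microM if Cmax unknown.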

[1] = second compound 0.0316 µM, first compound 0.0316 µM
[2] = second compound 0.0316 µM, first compound 0.1 µM
[3] = second compound 0.1 µM, first compound 0.0316 µM
[4] = second compound 0.1 µM, first compound 0.1 µM
[5] = second compound 0.316 µM, first compound 0.0316 µM
[6] = second compound 0.316 µM, first compound 0.1 µM
[7] = second compound 1 µM, first compound 0.0316 µM
[8] = second compound 1 µM, first compound 0.1 µM
[9] = second compound 3.16 µM, first compound 0.0316 µM
[10] = second compound 3.16 µM, first compound 0.1 µM
[11] = second compound 10 µM, first compound 0.0316 µM
[12] = second compound 10 µM, first compound 0.1 µM
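Also: spheroids exposed to agents for 7 days before reading.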
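For viability, T/C in this document: luminescence signal used as a stand-in for viable cells.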

Compound `Cn1ncnc1[C@H]1c2n[nH]c(=O)c3cc(F)cc(c23)N[C@@H]1c1ccc(F)cc1` + CN1CCN(c2cc(C(=O)Nc3cc4cc(-c5cnn(C)c5)ccc4cn3)ccn2)CC1 has an IC50 (second compound 0.0316 µM) greater than 100 nM, an IC50 (second compound 0.1 µM) of 50 nM and an IC50 (second compound 0.316 µM) of less than 0.316 nM. The IC50 (second compound 1 µM) was less than 0.316 nM, the IC50 (second compound 3.16 µM) was less than 0.316 nM and the IC50 (second compound 10 µM) was less than 0.316 nM. It also gave a viability, T/C (second compound 0.0316 µM, first compound 0.000316 µM) of 90.4%, a viability, T/C (second compound 0.0316 µM, first compound 0.001 µM) of 77.8% and a viability, T/C (second compound 0.0316 µM, first compound 0.00316 µM) of 74.8%. For the same compound, the viability, T/C (second compound 0.0316 µM, first compound 0.01 µM) was 65.6%, the viability, T/C [1] was 55.4% and the viability, T/C [2] was 52.1%. For the same compound, the viability, T/C (second compound 0.1 µM, first compound 0.000316 µM) was 88.1%, the viability, T/C (second compound 0.1 µM, first compound 0.001 µM) was 81.2% and the viability, T/C (second compound 0.1 µM, first compound 0.00316 µM) was 70.4%. The viability, T/C (second compound 0.1 µM, first compound 0.01 µM) was 58.9%, the viability, T/C [3] was 53.9% and the viability, T/C [4] was 46%. It also gave a viability, T/C (second compound 0.316 µM, first compound 0.000316 µM) of 21.2%, a viability, T/C (second compound 0.316 µM, first compound 0.001 µM) of 23.7% and a viability, T/C (second compound 0.316 µM, first compound 0.00316 µM) of 25.9%. The viability, T/C (second compound 0.316 µM, first compound 0.01 µM) was 22.4%, the viability, T/C [5] was 21.9% and the viability, T/C [6] was 18.6%. It also gave a viability, T/C (second compound 1 µM, first compound 0.000316 µM) of 0.86%, a viability, T/C (second compound 1 µM, first compound 0.001 µM) of 0.77% and a viability, T/C (second compound 1 µM, first compound 0.00316 µM) of 1.08%. It also gave a viability, T/C (second compound 1 µM, first compound 0.01 µM) of 0.85%, a viability, T/C [7] of 0.82% and a viability, T/C [8] of 1.53%. It also gave a viability, T/C (second compound 3.16 µM, first compound 0.000316 µM) of 0.25%, a viability, T/C (second compound 3.16 µM, first compound 0.001 µM) of 0.59% and a viability, T/C (second compound 3.16 µM, first compound 0.00316 µM) of 1.07%. It also gave a viability, T/C (second compound 3.16 µM, first compound 0.01 µM) of 0.33%, a viability, T/C [9] of 0.69% and a viability, T/C [10] of 0.48%. It also gave a viability, T/C (second compound 10 µM, first compound 0.000316 µM) of 0.45%, a viability, T/C (second compound 10 µM, first compound 0.001 µM) of 1.52% and a viability, T/C (second compound 10 µM, first compound 0.00316 µM) of 0.56%. It also gave a viability, T/C (second compound 10 µM, first compound 0.01 µM) of 1.45%, a viability, T/C [11] of 0.51% and a viability, T/C [12] of 0.39%.

Compound `COc1cccc2c1C(=O)c1c(O)c3c(c(O)c1C2=O)CC(O)(C(=O)CO)CC3OC1CC(N)C(O)C(C)O1` (centres undefined) + CN1CCN(c2cc(C(=O)Nc3cc4cc(-c5cnn(C)c5)ccc4cn3)ccn2)CC1 has an IC50 (second compound 0.0316 µM) of less than 31.6 nM, an IC50 (second compound 0.1 µM) of less than 31.6 nM and an IC50 (second compound 0.316 µM) of less than 31.6 nM. It also gave an IC50 (second compound 1 µM) of less than 31.6 nM, an IC50 (second compound 3.16 µM) of less than 31.6 nM and an IC50 (second compound 10 µM) of less than 31.6 nM. It also gave a viability, T/C [1] of 16.3%, a viability, T/C [2] of 7.2% and a viability, T/C (second compound 0.0316 µM, first compound 0.316 µM) of 1.82%. It also gave a viability, T/C (second compound 0.0316 µM, first compound 1 µM) of 0.52%, a viability, T/C (second compound 0.0316 µM, first compound 3.16 µM) of 3.08% and a viability, T/C (second compound 0.0316 µM, first compound 10 µM) of 7.38%. For the same compound, the viability, T/C [3] was 17.7%, the viability, T/C [4] was 5.86% and the viability, T/C (second compound 0.1 µM, first compound 0.316 µM) was 1.2%. The viability, T/C (second compound 0.1 µM, first compound 1 µM) was 0.36%, the viability, T/C (second compound 0.1 µM, first compound 3.16 µM) was 4.01% and the viability, T/C (second compound 0.1 µM, first compound 10 µM) was 8.5%. The viability, T/C [5] was 15.2%, the viability, T/C [6] was 4.88% and the viability, T/C (second compound 0.316 µM, first compound 0.316 µM) was 0.54%. It also gave a viability, T/C (second compound 0.316 µM, first compound 1 µM) of 0.77%, a viability, T/C (second compound 0.316 µM, first compound 3.16 µM) of 3.95% and a viability, T/C (second compound 0.316 µM, first compound 10 µM) of 9.46%. The viability, T/C [7] was 0.41%, the viability, T/C [8] was 0.53% and the viability, T/C (second compound 1 µM, first compound 0.316 µM) was 0.23%. It also gave a viability, T/C (second compound 1 µM, first compound 1 µM) of 1.24%, a viability, T/C (second compound 1 µM, first compound 3.16 µM) of 3.93% and a viability, T/C (second compound 1 µM, first compound 10 µM) of 8.63%. The viability, T/C [9] was 0.22%, the viability, T/C [10] was 0.41% and the viability, T/C (second compound 3.16 µM, first compound 0.316 µM) was 1.02%. For the same compound, the viability, T/C (second compound 3.16 µM, first compound 1 µM) was 1.45%, the viability, T/C (second compound 3.16 µM, first compound 3.16 µM) was 6.27% and the viability, T/C (second compound 3.16 µM, first compound 10 µM) was 9.38%. For the same compound, the viability, T/C [11] was 0.49%, the viability, T/C [12] was 0.33% and the viability, T/C (second compound 10 µM, first compound 0.316 µM) was 1.94%. The viability, T/C (second compound 10 µM, first compound 1 µM) was 0.34%, the viability, T/C (second compound 10 µM, first compound 3.16 µM) was 0.53% and the viability, T/C (second compound 10 µM, first compound 10 µM) was 0.18%.
